In US4833144A, “2-Alkylsulfinyl-4(3H)-quinazolinone derivatives and pharmaceutical compositions” (Nisshin Flour Milling Co., Ltd., priority 1987, dated 1989) one finds inhibition in vivo and LD50 data, which are given here for 17 compounds.

The first series has as its system indomethacin induced ulcer. The series can be described thus: antiulcer activity: suppression of indomethacin induced ulcer in mice. Conditions: Mus musculus, po, 4 h, read-out: Suppression rate of indomethacin induced ulcer, 100 mg/kg, p.o. The series is classed as in vivo, ddY series male mice. How it is done:
The antiulcer activity of the compounds of this invention was determined by the following method. Four-week-old ddY series male mice were used as the test animals after they were fasted for 24 hours. Each test compound suspended in a 1% gum arabic solution was administerd to the stomach of each mouse at a dose of 100 mg/kg, and then, after 30 minutes, 20 mg/kg of indomethacin was administered orally. Four hours after the administration of indomethacin, the stomach of mouse was extirpated and the length of ulcers was measured. Then, the ulcer index was determined by the total sum of the scores as calculated in Table 1.
As for `CN/C(=N/CCSCc1nc[nH]c1C)NC#N` [Cimetidine, reference compound], the inhibition in vivo at 100 mg/kg amounted to 40%.

Staying with this series, now noted: po; mouse, 100 mg/kg p.o. 30 min before 20 mg/kg indomethacin; ulcer index 4 h later, vs control group; read-out: Suppression rate of indomethacin induced ulcer, 100 mg/kg, p.o.
Take `COc1ccc(-n2c([S+]([O-])Cc3nccc(OC)c3C)nc3ccc(C)cc3c2=O)cc1` (stereo not drawn) [2-[(4-methoxy-3-methylpyridin-2-yl)methylsulfinyl]-3-(4-methoxyphenyl)-6-methyl-4(3H)-quinazolinone]: the inhibition in vivo at 100 mg/kg worked out at 51%.

`COc1cc(C[S+]([O-])c2nc3ccccc3c(=O)n2-c2ccccc2)ncc1C` (stereo not drawn) [2-[(4-methoxy-5-methylpyridin-2-yl)methylsulfinyl]-3-phenyl-4(3H)-quinazolinone]: the inhibition in vivo at 100 mg/kg worked out at 82%. The same measure, in the same setting: next, `COc1cc(C[S+]([O-])c2nc3ccc(C)cc3c(=O)n2-c2ccccc2)ncc1C` (stereo not drawn) [2-[(4-methoxy-5-methylpyridine-2-yl)methylsulfinyl]-6-methyl-3-phenyl-4(3H)-quinazolinone]: 59%; `Cc1ccnc(C[S+]([O-])c2nc3ccccc3c(=O)n2-c2ccccc2)c1` (stereo not drawn) [2-[(4-methylpyridin-2-yl)methylsulfinyl]-3-phenyl-4(3H)-quinazolinone]: 68%; `O=c1c2ccccc2nc([S+]([O-])Cc2ccccn2)n1-c1cccc2ccccc12` (stereo not drawn) [3-(1-naphthyl)-2-(2-pyridylmethylsulfinyl)-4(3H)-quinazolinone]: 39%. As for `O=c1c2ccccc2nc([S+]([O-])Cc2ccccn2)n1-c1ccccc1Cl` (stereo not drawn) [3-(2-chlorophenyl)-2-(2-pyridylmethylsulfinyl)-4(3H)-quinazolinone], the inhibition in vivo at 100 mg/kg was found to be 56%.

In the case of `COc1cccc(-n2c([S+]([O-])Cc3ccccn3)nc3ccccc3c2=O)c1` (stereo not drawn) [3-(3-methoxyphenyl)-2-(2-pyridylmethylsulfinyl)-4(3H)-quinazolinone], the inhibition in vivo at 100 mg/kg came out at 73%. Consider `COc1ccc(-n2c([S+]([O-])Cc3ccccn3)nc3ccccc3c2=O)cc1` (stereo not drawn) [3-(4-methoxyphenyl)-2-(2-pyridylmethylsulfinyl)-4(3H)-quinazolinone], for which the inhibition in vivo at 100 mg/kg stood at 72%.

In the case of `Cc1ccc(-n2c([S+]([O-])Cc3ccccn3)nc3ccccc3c2=O)cc1` (stereo not drawn) [3-(4-methylphenyl)-2-(2-pyridylmethylsulfinyl)-4(3H)-quinazolinone], the inhibition in vivo at 100 mg/kg stood at 73%. For the compound `O=c1c2ccccc2nc([S+]([O-])Cc2ccccn2)n1-c1ccccc1` (stereo not drawn) [3-Phenyl-2-(2-pyridylmethylsulfinyl)-4(3H)-quinazolinone], the inhibition in vivo at 100 mg/kg is 83%. On to `O=c1c2ccccc2nc([S+]([O-])Cc2ccncc2)n1-c1ccccc1` (stereo not drawn) [3-Phenyl-2-(4-pyridylmethylsulfinyl)-4(3H)-quinazolinone], for which the inhibition in vivo at 100 mg/kg was 69%. As to `CC(C)Cn1c([S+]([O-])Cc2ccccn2)nc2ccccc2c1=O` (stereo not drawn) [3-isobutyl-2-(2-pyridylmethylsulfinyl)-4(3H)-quinazolinone], the inhibition in vivo at 100 mg/kg came to 40%.

For the compound `O=c1c2ccccc2nc([S+]([O-])Cc2cccnc2)n1-c1ccccc1` (stereo not drawn) [3-phenyl-2-(3-pyridylmethylsulfinyl)-4(3H)-quinazolinone], the inhibition in vivo at 100 mg/kg turned out to be 55%. As to `O=c1c2ccccc2nc([S+]([O-])Cc2ccnc3ccccc23)n1-c1ccccc1` (stereo not drawn) [3-phenyl-2-(4-quinolylmethylsulfinyl)-4(3H)-quinazolinone], the inhibition in vivo at 100 mg/kg was 64%. `Cc1cccc2nc([S+]([O-])Cc3ccccn3)n(-c3ccccc3)c(=O)c12` (stereo not drawn) [5-methyl-3-phenyl-2-(2-pyridylmethylsulfinyl)-4(3H)-quinazolinone]: the inhibition in vivo at 100 mg/kg turned out to be 77%. For the compound `Cc1ccc2nc([S+]([O-])Cc3ccccn3)n(-c3ccccc3)c(=O)c2c1` (stereo not drawn) [6-methyl-3-phenyl-2-(2-pyridylmethylsulfinyl)-4(3H)-quinazolinone], the inhibition in vivo at 100 mg/kg was found to be 56%.

System in another series: not listed separately
The series can be described thus: acute oral toxicity (LD50). Conditions: in vivo.
On to `O=c1c2ccccc2nc([S+]([O-])Cc2ccccn2)n1-c1ccccc1` (stereo not drawn) [3-Phenyl-2-(2-pyridylmethylsulfinyl)-4(3H)-quinazolinone], for which the LD50 is above 3000 mg/kg.

In general, LD50 refers to the dose expected to kill half of the subjects tested.
